Measurements as given in article PMC4384643 (Molecular cell, 2015).
“Also recorded” adds a separate entry of the source.

Experiments:
[1] = system: BCL-2; conditions: ref Souers et al., 2013; cited from earlier work
[2] = system: BAX; assay: BAX/BCL-2 co-immunoprecipitation in HeLa cells; format: binding; conditions: HeLa cells co-expressing full-length BAX and BCL-2; BCL-2 antibody IP

| Compound | BCL-2 inhibitory activity [1] | co-immunoprecipitation of BAX with BCL-2 [2] |
| --- | --- | --- |
| CC1(C)CCC(CN2CCN(c3ccc(C(=O)NS(=O)(=O)c4ccc(NCC5CCOCC5)c([N+](=O)[O-])c4)c(Oc4cnc5[nH]ccc5c4)c3)CC2)=C(c2ccc(Cl)cc2)C1 [ABT-199] | selective BCL-2 inhibitor |  |
| BCL-2 L23A: L23A point mutant of BCL-2 protein |  | impaired by L23A mutagenesis of the BCL-2 BH4 domain; also recorded: less effective at co-immunoprecipitating BAX relative to wild-type BCL-2 |
